In patent US9127038B2, “Kisspeptide-pentasaccharide conjugates” (Merck Sharp & Dohme Corp., priority 2011, dated 2015):
Like-named read-outs stand apart in the source and are kept apart here.

Experiments:
[1] = In vitro stability in human serum (LC/MS/MS); conditions: human
Description: Test compound is added to 1.5 mL human serum in a 96-wells deepwell plate in a final concentration of 750 nM. The compound is mixed and immediately thereafter a 100 μl sample is harvested in a 96-wells 2D-tuberack (T=0 sample). The 2 D-tubes are closed with rubber tube caps and the sample plate is stored at −20° CF. in the freezer. The deepwell plate is put into an incubator which was set at humidified (95%) atmosphere at 5-7% CO2 and 37° C. for an incubation period of maximum 240 h. During this incubation period, samples of 100 μl are collected on various time intervals, dependent on the test compound used; time points 0, 1, 2, 3, 6, 24, 48, 72 h in case of Kisspeptides and 0, 3, 6, 24, 48, 72, 168, 240 h in case of kisspeptide-pentasaccharide conjugates. Sample plates are put on ice in case of sampling and stored at −20° C. until analysis by LC/MS/MS.
For LC-MS/MS analysis, the compounds are separated over an XTerra RP8 column and using a gradient mobile phase of ammonium acetate buffer and acetonitrile at a fixed column temperature. MS/MS detection is done with a triple quadrupole mass spectrometer and employing negative ion electrospray ionization. The mass spectrometer is set up to achieve a known degree of in source fragmentation, where the initially formed multiply charged negative ions lose one or more SO3 molecules. The most abundant of these secondary ions are then subjected to a common MS/MS experiment in which a single SO3 loss is monitored. The Q1 and Q3 mass filter settings for this MS/MS experiment have commonly been determined in method development. […] Internal standardization is accomplished by adding a different conjugate of approximately the same size to the bioanalytical samples.
The rate of compound loss is expressed as a half-life (plasma t^1/2). The t^1/2 for the test compound can be determined by plotting the natural logarithm (In) of the measured concentrations against time and fitting the line through all data points. The gradient of this line is the first order rate constant (k) for substrate disappearance and is determined by regression analysis. The rate constant is converted to a half-life according to the following equation: In vitro half-life(t^1/2)=−ln 2/k

human KISS-receptor = target: T1, human KISS-receptor (Homo sapiens, UniProt Q969F8); assay: NFAT-regulated luciferase reporter gene assay in CHO-k1 cells, agonist activity; type: cell-based
T1 construct: expressed in transfected cells; host or cells: CHO-k1 cells that also express mitochondrially targeted aequorin, Gα16 and an NFAT-luciferase reporter

[2] = absence of human serum, read-out: pEC50 (converted)
[3] = presence of 20% human serum, read-out: pEC50 serum (converted)

T1 sequence (Q969F8 whole entry): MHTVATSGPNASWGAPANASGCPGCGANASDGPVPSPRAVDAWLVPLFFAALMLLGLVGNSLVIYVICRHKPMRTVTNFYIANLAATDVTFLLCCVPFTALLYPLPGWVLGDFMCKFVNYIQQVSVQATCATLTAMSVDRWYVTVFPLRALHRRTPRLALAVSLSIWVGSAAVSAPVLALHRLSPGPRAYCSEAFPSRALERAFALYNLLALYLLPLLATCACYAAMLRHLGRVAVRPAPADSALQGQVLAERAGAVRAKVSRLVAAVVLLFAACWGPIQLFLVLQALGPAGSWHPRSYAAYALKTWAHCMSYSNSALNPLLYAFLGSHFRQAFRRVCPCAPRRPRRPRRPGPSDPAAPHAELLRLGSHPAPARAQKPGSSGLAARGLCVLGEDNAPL

| EC50 (human KISS-receptor; [2]) [nM] | EC50 (human KISS-receptor; [3]) [nM] | potency (in words) (human KISS-receptor; in words) | SMILES | half-life at 750 nM [1] [days] | EC50 (human KISS-receptor; pEC50, absence of human serum) [nM] | EC50 (human KISS-receptor; pEC50 serum, presence of 20% human serum) [nM] |
| --- | --- | --- | --- | --- | --- | --- |
| – | – | – | CNC(=N)NCCC[C@H](NC(=O)[C@H](CC(C)C)NC(=O)NNC(=O)[C@H](Cc1ccccc1)NC(=O)[C@@H](NC(=O)[C@H](CC(N)=O)NC(=O)[C@H](Cc1c[nH]c2ccccc12)NC(=O)[C@H](CC(N)=O)NC(=O)[C@@H](Cc1ccc(O)cc1)NC(=O)CCCCn1cc(CCC(=O)NCCOCCOCCOCCO[C@H]2[C@H](OC)[C@@H](OC)[C@@H](O[C@H]3[C@H](OC)[C@@H](OC)[C@H](O[C@H]4[C@H](OS(=O)(=O)O)[C@@H](OS(=O)(=O)O)[C@@H](O[C@H]5[C@H](OC)[C@@H](OC)[C@H](O[C@H]6[C@H](OC)[C@@H](OS(=O)(=O)O)[C@@H](OC)O[C@@H]6COS(=O)(=O)O)O[C@H]5C(=O)O)O[C@@H]4COS(=O)(=O)O)O[C@@H]3C(=O)O)O[C@@H]2COS(=O)(=O)O)nn1)[C@@H](C)O)C(=O)N[C@@H](Cc1ccccc1)C(N)=O [Conjugate C7] | 7.12 | 0.158 | 0.501 |
| 0.123 | 0.525 | – | CNC(=N)NCCC[C@H](NC(=O)[C@H](CC(C)C)NC(=O)NNC(=O)[C@H](Cc1ccccc1)NC(=O)[C@@H](NC(=O)[C@H](CC(N)=O)NC(=O)[C@H](Cc1c[nH]c2ccccc12)NC(=O)[C@H](CC(N)=O)NC(=O)[C@@H](Cc1ccc(O)cc1)NC(=O)CCOCCOCCOCCOCCn1cc(CCC(=O)NCCOCCOCCOCCO[C@H]2[C@H](OC)[C@@H](OC)[C@@H](O[C@H]3[C@H](OC)[C@@H](OC)[C@H](O[C@H]4[C@H](OS(=O)(=O)O)[C@@H](OS(=O)(=O)O)[C@@H](O[C@H]5[C@H](OC)[C@@H](OC)[C@H](O[C@H]6[C@H](OC)[C@@H](OS(=O)(=O)O)[C@@H](OC)O[C@@H]6COS(=O)(=O)O)O[C@H]5C(=O)O)O[C@@H]4COS(=O)(=O)O)O[C@@H]3C(=O)O)O[C@@H]2COS(=O)(=O)O)nn1)[C@@H](C)O)C(=O)N[C@@H](Cc1ccccc1)C(N)=O [Conjugate C10] | 5.04 | – | – |
| 0.372 | 1.02 | – | CNC(=N)NCCC[C@H](NC(=O)[C@H](CC(C)C)NC(=O)CNC(=O)[C@H](Cc1ccccc1)NC(=O)[C@@H](NC(=O)[C@H](CC(N)=O)NC(=O)[C@@H]1C[C@@H](O)CN1C(=O)[C@H](CC(N)=O)NC(=O)[C@H](Cc1ccc(O)cc1)NC(=O)CCOCCOCCOCCOCCn1cc(CCC(=O)NCCOCCOCCOCCO[C@H]2[C@H](OC)[C@@H](OC)[C@@H](O[C@H]3[C@H](OC)[C@@H](OC)[C@H](O[C@H]4[C@H](OS(=O)(=O)O)[C@@H](OS(=O)(=O)O)[C@@H](O[C@H]5[C@H](OC)[C@@H](OC)[C@H](O[C@H]6[C@H](OC)[C@@H](OS(=O)(=O)O)[C@@H](OC)O[C@@H]6COS(=O)(=O)O)O[C@H]5C(=O)O)O[C@@H]4COS(=O)(=O)O)O[C@@H]3C(=O)O)O[C@@H]2COS(=O)(=O)O)nn1)[C@@H](C)O)C(=O)N[C@@H](Cc1ccccc1)C(N)=O [Conjugate C25] | 7.83 | – | – |
| – | – | – | CNC(=N)NCCC[C@H](NC(=O)[C@H](CC(C)C)NC(=O)CNC(=O)[C@H](Cc1ccccc1)NC(=O)[C@@H](NC(=O)[C@H](CC(N)=O)NC(=O)[C@@H]1C[C@@H](O)CN1C(=O)[C@H](CC(N)=O)NC(=O)[C@H](Cc1ccc(O)cc1)NC(=O)CCOCCOCCOCCOCCn1cc(CCC(=O)NCCOCCOCCOCCO[C@H]2[C@H](OC)[C@@H](OC)[C@@H](O[C@H]3[C@H](OC)[C@@H](OC)[C@H](O[C@H]4[C@H](OS(=O)(=O)O)[C@@H](OS(=O)(=O)O)[C@@H](O[C@H]5[C@H](OC)[C@@H](OC)[C@H](O[C@H]6[C@H](OS(=O)(=O)O)[C@@H](OS(=O)(=O)O)[C@@H](OC)O[C@@H]6COS(=O)(=O)O)O[C@H]5C(=O)O)O[C@@H]4COS(=O)(=O)O)O[C@@H]3C(=O)O)O[C@@H]2COS(=O)(=O)O)nn1)[C@@H](C)O)C(=O)N[C@@H](Cc1ccccc1)C(N)=O [Conjugate C26] | > 10 | – | – |
| – | – | – | CNC(=N)NCCC[C@H](NC(=O)[C@H](CC(C)C)NC(=O)NNC(=O)[C@H](Cc1ccccc1)NC(=O)[C@@H](NC(=O)[C@H](CC(N)=O)NC(=O)[C@@H]1C[C@@H](O)CN1C(=O)[C@@H](Cc1ccc(O)cc1)NC(=O)CCCCn1cc(CCC(=O)NCCOCCOCCOCCO[C@H]2[C@H](OC)[C@@H](OC)[C@@H](O[C@H]3[C@H](OC)[C@@H](OC)[C@H](O[C@H]4[C@H](OS(=O)(=O)O)[C@@H](OS(=O)(=O)O)[C@@H](O[C@H]5[C@H](OC)[C@@H](OC)[C@H](O[C@H]6[C@H](OS(=O)(=O)O)[C@@H](OS(=O)(=O)O)[C@@H](OC)O[C@@H]6COS(=O)(=O)O)O[C@H]5C(=O)O)O[C@@H]4COS(=O)(=O)O)O[C@@H]3C(=O)O)O[C@@H]2COS(=O)(=O)O)nn1)[C@@H](C)O)C(=O)N[C@@H](Cc1c[nH]c2ccccc12)C(N)=O [Conjugate C31] | > 10 | – | – |
| 0.0407 | 0.141 | – | CNC(=N)NCCC[C@H](NC(=O)[C@H](CC(C)C)NC(=O)NNC(=O)[C@H](Cc1ccccc1)NC(=O)[C@@H](NC(=O)[C@H](CC(N)=O)NC(=O)[C@@H]1C[C@@H](O)CN1C(=O)[C@@H](Cc1ccc(O)cc1)NC(=O)CCOCCOCCOCCOCCn1cc(CCC(=O)NCCOCCOCCOCCO[C@H]2[C@H](OC)[C@@H](OC)[C@@H](O[C@H]3[C@H](OC)[C@@H](OC)[C@H](O[C@H]4[C@H](OS(=O)(=O)O)[C@@H](OS(=O)(=O)O)[C@@H](O[C@H]5[C@H](OC)[C@@H](OC)[C@H](O[C@H]6[C@H](OC)[C@@H](OS(=O)(=O)O)[C@@H](OC)O[C@@H]6COS(=O)(=O)O)O[C@H]5C(=O)O)O[C@@H]4COS(=O)(=O)O)O[C@@H]3C(=O)O)O[C@@H]2COS(=O)(=O)O)nn1)[C@@H](C)O)C(=O)N[C@@H](Cc1c[nH]c2ccccc12)C(N)=O [Conjugate C34] | 5.75 | – | – |
| 0.0427 | 1.38 | – | CNC(=N)NCCC[C@H](NC(=O)[C@H](CC(C)C)NC(=O)NNC(=O)[C@H](Cc1ccccc1)NC(=O)[C@@H](NC(=O)[C@H](CC(N)=O)NC(=O)[C@@H]1C[C@@H](O)CN1C(=O)[C@@H](Cc1ccc(O)cc1)NC(=O)CCOCCOCCOCCOCCn1cc(CCC(=O)NCCOCCOCCOCCO[C@H]2[C@H](OC)[C@@H](OC)[C@@H](O[C@H]3[C@H](OC)[C@@H](OC)[C@H](O[C@H]4[C@H](OS(=O)(=O)O)[C@@H](OS(=O)(=O)O)[C@@H](O[C@H]5[C@H](OC)[C@@H](OC)[C@H](O[C@H]6[C@H](OS(=O)(=O)O)[C@@H](OS(=O)(=O)O)[C@@H](OC)O[C@@H]6COS(=O)(=O)O)O[C@H]5C(=O)O)O[C@@H]4COS(=O)(=O)O)O[C@@H]3C(=O)O)O[C@@H]2COS(=O)(=O)O)nn1)[C@@H](C)O)C(=O)N[C@@H](Cc1c[nH]c2ccccc12)C(N)=O [Conjugate C35] | > 10 | – | – |
| 1.58 | 31.6 | not sufficiently potent | CO[C@H]1O[C@H](COS(=O)(=O)O)[C@@H](O[C@@H]2O[C@@H](C(=O)O)[C@@H](O[C@H]3O[C@H](COS(=O)(=O)O)[C@@H](O[C@@H]4O[C@H](C(=O)O)[C@@H](O[C@H]5O[C@H](COS(=O)(=O)O)[C@@H](OCCOCCOCCOCCNC(=O)CCc6cn(CCCCC(=O)N[C@@H](Cc7ccc(O)cc7)C(=O)N[C@@H](CC(N)=O)C(=O)N[C@@H](Cc7c[nH]c8ccccc78)C(=O)N[C@@H](CC(N)=O)C(=O)N[C@@H](CO)C(=O)N[C@@H](Cc7ccccc7)C(=O)NCC(=O)N[C@@H](CC(C)C)C(=O)N[C@@H](CCCNC(=N)N)C(=O)N[C@@H](Cc7ccccc7)C(N)=O)nn6)[C@H](OC)[C@H]5OC)[C@H](OC)[C@H]4OC)[C@H](OS(=O)(=O)O)[C@H]3OS(=O)(=O)O)[C@H](OC)[C@H]2OC)[C@H](OS(=O)(=O)O)[C@H]1OS(=O)(=O)O [Conjugate C42, reference compound] | 5.04 | – | – |
